From patent US8008328B2, “Methods for the treatment of diabetes-associated dyslipdemia” (Reddy US Therapeutics, Inc., priority 2007, dated 2011)

Tests used:
[1] = tested on: insulin receptor substrate (IRS-1); assay: IRS-1 Ser307 phosphorylation in differentiated 3T3L1 adipocytes (Western blot); format: cell-based, Murine; settings: FIG. 1; for IRS-1 phosphorylation: agent alone compared to untreated, 3T3L1 adipocytes
[2] = tested on: db/db mice; assay: Plasma insulin and lipids in db/db diabetic mouse model; format: in vivo
Protocol: The animals were 40 Female db/db diabetic mice, 4 weeks old on a diet of normal rodent chow. The tests were conducted on five groups, with 7-8 mice per group.
Group 1: Control CMC-tween, oral pipetting, 7 mice. Once a day for 28 days, 60 μl/mouse.
Group 2: Niacin 2.5 g/kg (roughly), in drinking water for 28 days, 7 mice (10 mg/mL in water).
Once a day for 28 days, 30 ul/mouse. (2 mg/mL in water)
Group 5: Pioglitazone 30 mg/kg/day, oral pipetting, 7 mice. Once a day for 28 days, 60 μL/mouse. (15 mg/mL in Vehicle)
Body weight was measured in all groups once a week. Food consumption was monitored once a week. All animals were fasted for 4 hours and plasma glucose levels were measured by OneTouch™ Ultra blood glucose meter. 35 animals were divided to 5 groups with 7 mice per group base on plasma glucose level. (Plasma glucose >120 mg/dL as a cut off for animal selection). 200 μL blood samples were collected from retro-orbital vein for plasma insulin level and lipids profile at baseline.
Treatment started for all groups and lasted for 28 days. 4 hours fast blood samples were collected for plasma insulin level and lipids profile at 2 weeks and 4 weeks post dose. The Oral Glucose Tolerance Test (“OGTT”) was conducted at day 16 and day 30 post dose.

[3] = tested on: THP-1; assay: Niacin-induced PGD2 secretion in PMA-differentiated THP-1 macrophages; format: cell-based, human; settings: FIG. 4
[4] = db/db diabetic dyslipidemia model, FIG. 3

Question: `Cc1cnc(NC(=O)C2=C(O)c3ccccc3S(=O)(=O)N2C)s1` [meloxicam] was tested. Which “effect on TNFα-induced IRS1 phosphorylation” value ([1]; cells incubated with compound 2 hours prior to TNFα (20 ng/mL, 30 minutes)) did it give?
Answer: Its value is “inhibited”.

Question: And the insulin levels ([2]; db/db mice, 2 mg/kg/day for two weeks)?
Answer: The insulin levels was “reduced”.

Question: What about the plasma insulin ([2]; db/db mice, treatment up to 28 days, FIG. 2) of the same compound?
Answer: The plasma insulin was “significantly reduced”.

Question: And the “effect on niacin's ability to increase HDL or decrease triglycerides” value ([2]; meloxicam added to niacin, db/db mice, FIG. 3)?
Answer: Its value is “did not affect”.

Question: And the “effect on niacin-induced increase in PGD2 levels” value ([3]; compound 30 minutes prior to niacin)?
Answer: Its value is “inhibited”.

Question: How did the IRS-1 phosphorylation [1] turn out when TNFα was run?
Answer: The IRS-1 phosphorylation was “increased”.

Question: For `O=C(O)c1cccnc1` [niacin, pyridine-3-carboxylic acid], which IRS-1 phosphorylation [1] is on record?
Answer: The IRS-1 phosphorylation was “significantly increased”.

Question: And the HDL [2, 4]?
Answer: The HDL was “increase”.

Question: What about the triglycerides [2, 4] of the same compound?
Answer: The triglycerides was “decrease”.

Question: What about the “PGD2 levels in culture medium” value ([3]; compared to controls) of the same compound?
Answer: The value was “increased”.
